In US20240076609A1, “COMPOSITIONS AND METHODS FOR CULTURING AND EXPANDING CELLS” (LIFE TECHNOLOGIES CORPORATION, priority 2017, published 2024):
Values joined by “and” are separate entries in the source; they are usually repeats but may differ in a detail not shown here. Equal values may be shown once. “Also recorded” adds a separate entry of the source.

Columns and labels:
[1] = system: Naïve T cells; experiment: Expansion of naïve T cells with 2-DG; format: cell-based, human; conditions: 4 mM 2-DG
Protocol: (§1) T cell activation and expansion: T cells (seeding density 1×10^6 vc/mL) were activated with DYNABEADS® Human T-Expander CD3/CD28 (Thermo Fisher Scientific, Cat. No. 11141D) at a ratio of 3 beads per T cell and cultured in serum-free medium, animal origin free medium. T cells were counted on days 5, 7, 10, and 12 on a Vi-CELL XR analyzer (Beckman Coulter, Indianapolis IN) and fed with or without 2-DG (0.25 mM, 0.5 mM, 1 mM, 2 mM, and 4 mM) and 5% human AB serum to a density of 5×10^5 vc/mL on days 3, 5, and 7 and 1×10^6 vc/mL on day 10. For some studies, CD8+ and CD4+ T cells were isolated from PBMCs by negative selection using Untouched Human CD8+ and CD4+ T Cells Kits. Naïve and non-naïve T cells were isolated from enriched T cells by positive selection using CD45RA nanobeads (Miltenyi). […]

[2] = system: Non-naïve T cells; experiment: Expansion of non-naïve T cells with 2-DG; format: cell-based, human; conditions: 4 mM 2-DG
Protocol: as §1

[3] = system: Naïve T cells; experiment: CD8+/CD4+ phenotype after 10 days with 2-DG in naïve T cells; format: cell-based, human; conditions: 4 mM 2-DG
Protocol: (§2) For some studies, CD8+ and CD4+ T cells were isolated from PBMCs by negative selection using Untouched Human CD8+ and CD4+ T Cells Kits. Naïve and non-naïve T cells were isolated from enriched T cells by positive selection using CD45RA nanobeads (Miltenyi). Phenotype: Primary human T cells were expanded for 10 days with and without 2-DG and 5% human AB serum. DYNABEADS® were removed from 2×10^6 cells by magnetic separation. Surface staining was performed with antibodies against CD3 (Invitrogen, Cat. No. CD0329), CD4 (Molecular Probes, Cat. No. A15858), CD8 (Invitrogen, Cat. No. MHCD0828). Flow cytometric analysis was performed on a Gallios flow cytometer and Kaluza software (Beckman Coulter, Indianapolis IN). For some studies, CD8+ and CD4+ T cells were isolated from PBMCs by negative selection using Untouched Human CD8+ and CD4+ T Cells Kits. Naïve and non-naïve T cells were isolated from enriched T cells by positive selection using CD45RA nanobeads (Miltenyi). Phenotype: Primary human T cells were expanded for 10 days with and without 2-DG and 5% human AB serum. DYNABEADS® were removed from 2×10^6 cells by magnetic separation. Surface staining was performed with antibodies against CD3 (Invitrogen, Cat. No. CD0329), CD4 (Molecular Probes, Cat. No. A15858), CD8 (Invitrogen, Cat. No. MHCD0828). Flow cytometric analysis was performed on a Gallios flow cytometer and Kaluza software (Beckman Coulter, Indianapolis IN).

[4] = system: mixed CD4+ T cells and CD8+ T cells; experiment: CD4+/CD8+ frequencies after 10 days with 2-DG in mixed CD4+:CD8+ cells (5:1, 10:1); format: cell-based, human; conditions: 0.25 mM 2-DG; for correction of deficits in CD8+ T cells compared to day 0: CD4+:CD8+ mixed 5:1 and 10:1
Protocol: as §2

[5] = system: Primary human T cells; experiment: CD8+/CD4+ phenotype with 2-DG and CD Lipid Concentrate 1 or 2; format: cell-based
Protocol: FIGS. 48 and 49 represent the data from Tables 42 and 43 which depicts the gating strategy for differentiation phenotyping. T cells expanded for 10 days were stained with antibodies against CD3, CD4, and CD8. Flow cytometric analysis was performed in a Beckman-Coulter Gallios analyzer.
Phenotype: Primary human T cells were expanded for 10 days with and without 2-DG and 5% human AB serum. DYNABEADS® were removed from 2×10^6 cells by magnetic separation. Surface staining was performed with antibodies against CD3 (Invitrogen, Cat. No. CD0329), CD4 (Molecular Probes, Cat. No. A15858), CD8 (Invitrogen, Cat. No. MHCD0828). Flow cytometric analysis was performed on a Gallios flow cytometer and Kaluza software (Beckman Coulter, Indianapolis IN).
FIGS. 48 and 49 represent the fold increase in CD8:CD4 ratio compared to day 0.

[6] = Day 10, 10:1 CD4+ CD8+ ratio, average
[7] = Day 10, 5:1 CD4+ CD8+ ratio, replicates
[8] = Day 10, 10:1 CD4+ CD8+ ratio, replicates

With `O=CC[C@@H](O)[C@H](O)[C@H](O)CO` [2-DG, 2-Deoxy-D-Glucose] the “effect of 2-DG on growth of naïve T cells” value ([1]; 12 days) was “did not affect growth of either cell type”, the “Cultured Naïve T Cell Population Doublings” value ([1]; day 5) was 1.70 and the “Cultured Naïve T Cell Population Doublings” value ([1]; day 7) was 3.92. The “Cultured Naïve T Cell Population Doublings” value ([1]; day 10) was 5.45, the “Cultured Naïve T Cell Population Doublings” value ([1]; day 12) was 6.13 and the “effect of 2-DG on growth of non-naïve T cells” value ([2]; 12 days) was “did not affect growth of either cell type; also recorded: modest effect”. The “Cultured Non-Naïve T Cell Population Doublings” value ([2]; day 5) was −0.24, the “Cultured Non-Naïve T Cell Population Doublings” value ([2]; day 7) was 1.25 and the “Cultured Non-Naïve T Cell Population Doublings” value ([2]; day 10) was 3.37. The “Cultured Non-Naïve T Cell Population Doublings” value ([2]; day 12) was 4.64, the “% CD4+ (Avg)” value ([3]; Day 10) was 59.69% and the “% CD8+ (Avg)” value ([3]; Day 10) was 36.66%. For the same compound, the “% Ratios (CD8+/CD4+)” value ([3]; Day 10) was 2.07, the “% CD4+” value ([3]; Day 10, replicates) was 25.82% and 25.23% and the “% CD8+” value ([3]; Day 10, replicates) was 52.71% and 53.26%. The “Fold Increase compared to Baseline” value ([3]; Day 10 vs Day 0) was 3.38, the “% CD4+” value ([4]; Day 10, 10:1 CD4+ CD8+ ratio) was 44.89% and 44.25% and the “% CD4+ (Avg)” value ([4]; Day 10, 10:1 CD4+ CD8+ ratio) was 44.57%. The “% CD8+” value ([4]; Day 10, 10:1 CD4+ CD8+ ratio) was 43.55% and 45.35%, the “% CD8+ (Avg)” value ([4]; Day 10, 10:1 CD4+ CD8+ ratio) was 44.45% and the “% CD4+ (Avg)” value [4, 6] was 44.57%. The “% CD8+ (Avg)” value [4, 6] was 44.45%, the “% CD4+ (Avg)” value ([4]; Day 10, 5:1 CD4+ CD8+ ratio) was 33.39% and the “% CD8+ (Avg)” value ([4]; Day 10, 5:1 CD4+ CD8+ ratio) was 53.83%. For the same compound, the “% CD4+” value [4, 7] was 32.91% and 33.88%, the “% CD8+” value [4, 7] was 53.50% and 54.17% and the “% CD4+” value [4, 8] was 44.25% and 44.89%. The “% CD8+” value [4, 8] was 45.35% and 43.55%, the “correction of deficits in CD8+ T cells compared to day 0” value [4] was “able to correct for a large deficits in CD8+ T cells” and the “correction of deficits in CD8+ T cells compared to day 0” value ([4]; listed as 2-DH) was “able to correct for substantial deficits in CD8+ T cells”. For the same compound, the “fold increase in CD8:CD4 ratio compared to day 0” value ([5]; 2-DG with CLC1) was 1.6 fold and the “fold increase in CD8:CD4 ratio compared to day 0” value ([5]; 2-DG with CLC2) was 1.4 fold.
